# Assay results published in patent US20100331338A1, “Glucokinase Activators” (Merck Patent GMBH, priority 2008, published 2010).
# Molecular target: T1, hGK (Homo sapiens, UniProt P35557)
# T1 sequence (P35557 1-465): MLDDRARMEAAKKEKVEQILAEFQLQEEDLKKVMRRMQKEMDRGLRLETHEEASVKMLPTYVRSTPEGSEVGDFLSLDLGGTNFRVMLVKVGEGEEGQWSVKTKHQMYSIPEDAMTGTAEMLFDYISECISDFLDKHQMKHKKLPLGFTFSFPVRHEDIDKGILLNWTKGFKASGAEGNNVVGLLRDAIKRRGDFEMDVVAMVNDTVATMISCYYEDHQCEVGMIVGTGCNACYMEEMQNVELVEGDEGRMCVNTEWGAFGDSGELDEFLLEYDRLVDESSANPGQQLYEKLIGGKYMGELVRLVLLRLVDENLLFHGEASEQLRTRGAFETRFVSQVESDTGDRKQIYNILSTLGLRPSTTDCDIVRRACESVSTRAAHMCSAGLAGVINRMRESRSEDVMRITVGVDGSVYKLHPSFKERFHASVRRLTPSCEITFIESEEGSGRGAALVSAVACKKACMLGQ
# Assay: Glucokinase Activation Screening Assay (coupled enzyme assay with PK/LDH)
# Assay type: biochemical
# Conditions: 2 mM glucose; for hGK fold activation at 30 μM: fold activation at 30 μM compound
# Procedure: Glucokinase Activation Screening Assay
# GK activity (human or rat enzyme) is measured by a coupled enzyme assay using pyruvate kinase (PK) and lactate dehydrogenase (LDH) as coupling enzymes. GK activity is calculated from the decline in NADH monitored photometrically with a microtiter plate (MTP) reader at 340 nm.
# For screening purposes, the GK assay is routinely run in a 384-MTP format, in a total volume of 33 μl/well. 10 μl of the ATP-regeneration solution (in HEPES-buffer*, pH 7.0, 6.73 U/ml pyruvate kinase, 6.8 U/ml lactate dehydrogenase) and 10 μl of the glucokinase-/glucose solution (15 μg/ml, 6.6 mM glucose in HEPES-buffer*, pH 7.0; the concentration of the glucose stock-solution was 660 mM in Millipore H2O) were mixed together with […] of a 10% DMSO solution (in HEPES-buffer*, pH 7.0) containing 3.3-fold the amounts of the compounds to achieve final compound concentrations in the range between 1 nM to 30 μM (sometimes 300 μM) in the assay solution (s. below). The solutions were mixed for 5 sec, and after a centrifugation at 243×g for 5 min, the solutions were preincubated for 25 min at room temperature.
# The reaction was started by the addition of 10 μl of the NADH-/ATP-solution (4.29 mM NADH, 4.95 mM ATP, in HEPES-buffer*). The MTP was shaken for 5 sec., and then, the absorbance at 340 nm was monitored continuously in a MTP-reader (TECAN Spectro fluor plus) for the next 27 min (with a MTP-cycling time of 199 sec.). The final concentrations of the various components were as follows: 49.5 mM Hepes, pH 7.0, 1.49 mM PEP,1,3 mM NADH, 49.5 mM KCl, 4.96 mM MgCl2, 1.5 mM Mg-ATP, 1.98 mM DTT, 2.04 U/ml pyruvate kinase, 2.06 U/ml lactate-dehydrogenase, 0.91% DMSO, 0.15 μg/well glucokinase, and test compounds in the range between 1 nM and 300 μM.
# The change in the optical density (ΔOD340 nm) in the presence of the compound was expressed relative to the ΔOD340 nm, ctrl of the control incubation (in the presence of 2 mM glucose and 0.91% DMSO), taking into account the optical density of the blank sample (incubation in the absence of 2 mM glucose). For the determination of the half maximal effective concentration (EC50), the %-Ctrl-values were plotted in a semi-logarithmic graph against the conc. of the compound of interest. The data points were fitted to a sigmoid curve function (f(x)=((%-Ctrlmax%-Ctrlmin)/(1−(EC50/x**^n(Hill)))+%-Ctrlmin)) by a non-linear regression analysis.
# * Hepes-buffer (50 mM Hepes, pH 7.0, 5 mM MgCl2, 50 mM KCl, 1.5 mM PEP, 0.1% BSA). DTT was added to the Hepes-buffer from a 200× stock solution (in Millipore H2O) freshly each day. The final concentration of DTT in the Hepes-buffer is 2 mM.
hGK fold activation at 30 μM,EC50 [µM],Structure (SMILES)
3.4,–,"Cc1csc(C(=O)Nc2nccs2)c1 [Example 4, 4-Methyl-thiophene-2-carboxylic acid thiazol-2-ylamide]"
1.2,–,"O=C(Nc1nccs1)c1csc2ccccc12 [Example 6, Benzo[b]thiophene-3-carboxylic acid thiazol-2-ylamide]"
3,–,"COCc1csc(C(=O)Nc2ccn(Cc3ccccn3)n2)c1 [Example 15, 4-Methoxymethyl-thiophene-2-carboxylic acid(1-pyridin-2-ylmethyl-1H-pyrazol-3-yl)-amide]"
1.3,–,"Cc1csc(C(=O)Nc2cc(C)n(Cc3ccccn3)n2)c1 [Example 16, 4-Methyl-thiophene-2-carboxylic acid(5-methyl-1-pyridin-2-ylmethyl-1H-pyrazol-3-yl)-amide]"
1.8,–,"COCc1csc(C(=O)Nc2cc(C)n(Cc3ccccn3)n2)c1 [Example 17, 4-Methoxymethyl-thiophene-2-carboxylic acid(5-methyl-1-pyridin-2-ylmethyl-1H-pyrazol-3-yl)-amide]"
1.5,–,"O=C(Nc1nccs1)c1cc(-c2ccc(Cl)cc2)cs1 [Example 19, 4-(4-Chloro-phenyl)-thiophene-2-carboxylic acid thiazol-2-ylamide]"
2.1,–,"CCCc1cc(C(=O)Nc2ccc(F)cn2)cs1 [Example 27, 5-Propyl-thiophene-3-carboxylic acid(5-fluoro-pyridin-2-yl)-amide]"
5.5,–,"CCCc1cc(C(=O)Nc2ccn(C)n2)cs1 [Example 29, 5-Propyl-thiophene-3-carboxylic acid(1-methyl-1H-pyrazol-3-yl)-amide]"
2.7,–,"CCCc1cc(C(=O)Nc2cc(Cl)ccn2)cs1 [Example 31, 5-Propyl-thiophene-3-carboxylic acid(4-chloro-pyridin-2-yl)-amide]"
2.7,–,"CCCc1cc(C(=O)Nc2ccncn2)cs1 [Example 36, 5-Propyl-thiophene-3-carboxylic acid pyrimidin-4-ylamide]"
3.6,–,"CCCc1cc(C(=O)Nc2ccn(Cc3ccccn3)n2)cs1 [Example 37, 5-Propyl-thiophene-3-carboxylic acid(1-pyridin-2-ylmethyl-1H-pyrazol-3-yl)-amide]"
2.4,–,"CCCc1cc(C(=O)Nc2cc(C)ccn2)cs1 [Example 39, 5-Propyl-thiophene-3-carboxylic acid(4-methyl-pyridin-2-yl)-amide]"
2.6,4.2,"CCOC(=O)Cn1ccc(NC(=O)c2cc(COC)cs2)n1 [Example 40, {3-[(4-Methoxymethyl-thiophene-2-carbonyl)-amino]-pyrazol-1-yl}-acetic acid ethyl ester]"
2.5,–,"CCCc1cc(C(=O)Nc2ccccn2)cs1 [Example 41, 5-Propyl-thiophene-3-carboxylic acid pyridin-2-ylamide]"
1.2,–,"COCc1csc(C(=O)Nc2cc(C)n(CC(=O)O)n2)c1 [Example 43, {3-[(4-Methoxymethyl-thiophene-2-carbonyl)-amino]-5-methyl-pyrazol-1-yl}-acetic acid]"
1.7,–,"COCc1csc(C(=O)Nc2ccn(CC(=O)O)n2)c1 [Example 44, {3-[(4-Methoxymethyl-thiophene-2-carbonyl)-amino]-pyrazol-1-yl}-acetic acid]"

# The remaining lines, values behind:
Structure (SMILES),hGK fold activation at 30 μM,EC50 [µM]
"O=C(Nc1nccs1)c1ccsc1 [Example 2, Thiophene-3-carboxylic acid thiazol-2-ylamide]",1.3,–
"O=C(Nc1nccs1)c1cccs1 [Example 3, Thiophene-2-carboxylic acid thiazol-2-ylamide]",1.3,–
"CS(=O)(=O)c1cc(C(=O)Nc2nccs2)sc1Cl [Example 5, 5-Chloro-4-methanesulfonyl-thiophene-2-carboxylic acid thiazol-2-ylamide]",1.9,5.9
"O=C(Nc1nccs1)c1csc2c1CCCC2 [Example 7, 4,5,6,7-Tetrahydro-benzo[b]thiophene-3-carboxylic acid thiazol-2-ylamide]",1.2,–
"CC1CCc2c(C(=O)Nc3nccs3)csc2C1 (centres unmarked) [Example 8, 6-Methyl-4,5,6,7-tetrahydro-benzo[b]thiophene-3-carboxylic acid thiazol-2-ylamide]",1.6,–
"CCCc1cc(C(=O)Nc2nc(C)cs2)cs1 [Example 10, 5-Propyl-thiophene-3-carboxylic acid(4-methyl-thiazol-2-yl)-amide]",5.2,9.3
"CCCc1cc(C(=O)Nc2nc(CC(=O)OCC)cs2)cs1 [Example 11, {2-[(5-Propyl-thiophene-3-carbonyl)-amino]thiazol-4-yl}-acetic acid ethyl ester]",4.9,15
"CCCc1cc(C(=O)Nc2nc(C(=O)OCC)cs2)cs1 [Example 12, 2-[(5-Propyl-thiophene-3-carbonyl)-amino]-thiazole-4-carboxylic acid ethyl ester]",2.6,5
"CCCc1cc(C(=O)Nc2nc(C)c(C(=O)OCC)s2)cs1 [Example 13, 4-Methyl-2-[(5-propyl-thiophene-3-carbonyl)-amino]-thiazole-5-carboxylic acid ethyl ester]",1.5,–
"CCCc1cc(C(=O)Nc2ncc[nH]2)cs1 [Example 14, 5-Propyl-thiophene-3-carboxylic acid(1H-imidazol-2-yl)-amide]",2.1,–
"CS(=O)(=O)c1csc(C(=O)Nc2nccs2)c1Cl [Example 18, 3-Chloro-4-methanesulfonyl-thiophene-2-carboxylic acid thiazol-2-ylamide]",1.2,–
"O=C(Nc1nccs1)c1csc([N+](=O)[O-])c1 [Example 20, 5-Nitro-thiophene-3-carboxylic acid thiazol-2-ylamide]",1.4,–
"CCCc1cc(C(=O)Nc2nc3ccccc3[nH]2)cs1 [Example 21, 5-Propyl-thiophene-3-carboxylic acid(1H-benzoimidazol-2-yl)-amide]",2.4,–
"CCCc1cc(C(=O)Nc2nncs2)cs1 [Example 24, 5-Propyl-thiophene-3-carboxylic acid[1,3,4]thiadiazol-2-ylamide]",2.4,–
"Cc1ccc(C(=O)Nc2nccs2)s1 [Example 26, 5-Methyl-thiophene-2-carboxylic acid thiazol-2-ylamide]",1.5,–
"CCCc1cc(C(=O)Nc2ccon2)cs1 [Example 28, 5-Propyl-thiophene-3-carboxylic acid isoxazol-3-ylamide]",2,–
"CCCc1sc(C(=O)Nc2nccs2)cc1CC [Example 33, 4-Ethyl-5-propyl-thiophene-2-carboxylic acid thiazol-2-ylamide]",9.4,–
"CCCc1cc(C(=O)Nc2cc[nH]n2)cs1 [Example 38, 5-Propyl-thiophene-3-carboxylic acid(1H-pyrazol-3-yl)-amide]",2.7,–
"CCCc1cc(C(=O)Nc2nc(C(=O)O)cs2)cs1 [Example 42, 2-[(5-Propyl-thiophene-3-carbonyl)-amino]-thiazole-4-carboxylic acid]",3.3,9
